Holding throughout (type): cell-based
For test [1], the system named is biofilms using a combination of Streptococcus pneumonia and Streptococcus mitis. The test can be described thus: Dispersal of pre-grown model (super) biofilm in microtiter plate, crystal violet staining, absorbance at 492 nm. Conditions: for biofilm disruption by antibiotic and cod trypsin combination compared with antibiotic alone: FIG. 1, Student's t test; for effect of antibiotic alone on biofilm formation: biofilms grown for 4 hours; for disruption of super biofilm by cod trypsins alone: FIGS. 4-6, compared with placebo, treated for 2 minutes. As to the method: Effects of combination of cod trypsins with selected antibiotics on biofilm dispersal. […] Biofilms using a combination of Streptococcus pneumonia and Streptococcus mitis were grown in a microtiter plate and used as a model for biofilm. The biofilm was treated with an antibiotic or a combination of the antibiotics and cod trypsins. The biofilms were stained with crystal violet followed by dissolution with acetic acid. Biofilm formation was measured as absorbance at 492 nm, and normalized to untreated biofilm. […] P values above bars indicate significance of difference between the two treatments as evaluated by Student's t test.
Effects of combination of cod trypsins with selected antibiotics on biofilm dispersal. […] Biofilms using a combination of Streptococcus pneumonia and Streptococcus mitis were grown in a microtiter plate and used as a model biofilm. The biofilm was treated with cod trypsins, an antibiotic, or a combination of the two. The biofilms were stained with crystal violet followed by dissolution with acetic acid. Biofilm formation was measured as absorbance at 492 nm, and normalized to untreated biofilm. […] P values above bars indicate significance of effects as evaluated by ANOVA analysis.
Each column represents one type of treatment or treatment combination, with the rows representing decreasing concentrations from top to bottom. After treatment biofilms are stained with crystal violet, with a darker colour representing more remaining biofilm. […] The lowest row represents blanks, where the first six holes represent untreated biofilm and the next six represent no biofilm.
Effects of cod trypsins on the super biofilm presented visually after biofilm staining with crystal violet. […] The super biofilm with a combination of Streptococcus pneumonia and Streptococcus mitis were grown in a microtiter plate. The biofilm was treated with cod trypsins or placebo for 2 minutes and the wells were stained to measure the presence (black wells) of biofilm or its absence (clear wells) after treatment.
After treatment the biofilms were stained with crystal violet, with a darker colour representing more remaining biofilm.
Effects of cod trypsins on the super biofilm as measured by spectrophotometry after crystal violet staining and dissolution in acetic acid. […] Biofilms using a combination of Streptococcus pneumonia and Streptococcus mitis were grown in a microtiter plate. The biofilm was treated with cod trypsins or placebo and the wells were stained with crystal violet followed by dissolution with acetic acid. Biofilm formation was measured as absorbance at 492 nm, and normalized to untreated biofilm. […] Data is presented as a bar-plot with the error bars indicating the standard error of the mean (SEM). Data for dilutions of placebo and cod trypsins treated bacterial biofilms are placed next to each other. The Log reduction of biofilm formation of Penzyme compared to that of placebo in the same dilution is above the bars, as is the level of significance indicated by asterisks (*), where * represents a P of <0.05, ** a P<0.01 and *** a P<0.001. Students T-test was used to calculate the significance.
Log reduction of super biofilm by cod trypsins at different concentrations. […] Biofilms using a combination of Streptococcus pneumonia and Streptococcus mitis were grown in a microtiter plate. The biofilm was treated with cod trypsins or placebo and the wells were stained with crystal violet followed by dissolution with acetic acid. Biofilm formation was measured as absorbance at 492 nm, and the reduction compared to placebo treated biofilm on a logarithmic scale.
Biofilms using a combination of Streptococcus pneumonia and Streptococcus mitis were grown in a microtiter plate. The biofilm was treated with an antibiotic or a combination of the antibiotics and cod trypsins. The biofilms were stained with crystal violet followed by dissolution with acetic acid.

A further test relates to bacteria. The test can be described thus: Lethality of cod trypsin to bacteria (statement, no method given).
In test [2] the test system is biofilm forming bacteria Streptococcus pneumonia and Streptococcus mitis. Briefly: Pre-treatment of planktonic bacteria before biofilm formation (4 hours), crystal violet staining, absorbance at 492 nm. Conditions: FIGS. 7-8, compared with placebo, biofilms grown 4 hours, normalized to untreated biofilm. The protocol: Effects of cod trypsins pre-treatment on biofilm formation. […] Biofilms using a combination of Streptococcus pneumonia and Streptococcus mitis were grown in a microtiter plate after being briefly treated with cod trypsins or placebo. After allowing the biofilms to grow for 4 hours the wells were stained with crystal violet followed by dissolution with acetic acid. Biofilm formation was measured as absorbance at 492 nm, and normalized to untreated biofilm. […] Data is presented as a boxplot where the top of the rectangle indicates the third quartile, a horizontal line near the middle of the rectangle indicates the median, and the bottom of the rectangle indicates the first quartile. A vertical line extends from the top of the rectangle to indicate the maximum value, and another vertical line extends from the bottom of the rectangle to indicate the minimum value.
Effects of cod trypsin pre-treatment on biofilm formation. […] Biofilms using a combination of Streptococcus pneumonia and Streptococcus mitis were grown in a microtiter plate after being treated with cod trypsins or placebo. After allowing the biofilms to grow for 4 hours the wells were stained with crystal violet followed by dissolution with acetic acid. Biofilm formation was measured as absorbance at 492 nm, and normalized to untreated biofilm. […] Statistical significance of the difference, as evaluated by Student's t test, is indicated by symbols above the boxes where n.s. is p >0.05, * is p<0.05, ** p<0.01, and *** p<0.001.
After allowing the biofilms to grow for 4 hours the wells were stained with crystal violet followed by dissolution with acetic acid. Biofilm formation was measured as absorbance at 492 nm, and normalized to untreated biofilm. […] Cod trypsins prevent biofilm formation in a concentration dependent manner. […] Biofilm formation was measured as absorbance at 492 nm, and normalized to untreated biofilm. […] Statistical significance of the difference, as evaluated by Student's t test, is indicated by symbols above the boxes where n.s. is p >0.05, * is p<0.05, ** p<0.01, and *** p<0.001.

The mark [3] stands for this setting: absorbance at 492 nm normalized to untreated biofilm.
[4] abbreviates: FIG. 3, 96 well plate image, crystal violet.

Entries after “also recorded” stand apart in the source; their conditions may differ.

In the case of `CO/N=C(\C(=O)N[C@@H]1C(=O)N2C(C(=O)O)=C(COC(C)=O)CS[C@H]12)c1csc(N)n1` [cefotaxime], the “biofilm disruption by antibiotic and cod trypsin combination compared with antibiotic alone” value in test [1] (setting [3]) was “more effective in disrupting bacterial biofilm than antibiotics alone”. Also, in test [1] (FIG. 2, absorbance at 492 nm normalized to untreated biofilm, ANOVA), the “biofilm disruption by combination of cod trypsin and antibiotic compared with either alone” value is recorded as “more effective in disrupting bacterial biofilm than either cod trypsins or antibiotics alone”.
Take `CC[C@H]1OC(=O)[C@H](C)[C@@H](O[C@H]2C[C@@](C)(OC)[C@@H](O)[C@H](C)O2)[C@H](C)[C@@H](O[C@@H]2O[C@H](C)C[C@H](N(C)C)[C@H]2O)[C@](C)(O)C[C@@H](C)C(=O)[C@H](C)[C@@H](O)[C@]1(C)O` [erythromycin]: the “biofilm disruption by antibiotic and cod trypsin combination compared with antibiotic alone” value in test [1] (setting [3]) is given as “more effective in disrupting bacterial biofilm than antibiotics alone”.
In the case of `Cc1onc(-c2ccccc2)c1C(=O)N[C@@H]1C(=O)N2[C@@H]1SC(C)(C)[C@@H]2C(=O)O` [oxacillin], the “biofilm disruption by antibiotic and cod trypsin combination compared with antibiotic alone” value in test [1] (setting [3]) is “more effective in disrupting bacterial biofilm than antibiotics alone”.
`CN[C@H](CC(C)C)C(=O)N[C@H]1C(=O)N[C@@H](CC(N)=O)C(=O)N[C@H]2C(=O)N[C@H]3C(=O)N[C@H](C(=O)N[C@H](C(=O)O)c4cc(O)cc(O)c4-c4cc3ccc4O)[C@H](O)c3ccc(c(Cl)c3)Oc3cc2cc(c3O[C@@H]2O[C@H](CO)[C@@H](O)[C@H](O)[C@H]2O[C@H]2C[C@](C)(N)[C@H](O)[C@H](C)O2)Oc2ccc(cc2Cl)[C@H]1O` [vancomycin]: the “biofilm disruption by antibiotic and cod trypsin combination compared with antibiotic alone” value in test [1] (setting [3]) is listed as “not to have significantly increased efficacy against the model biofilm when combined with trypsin”. In addition, in test [1] (setting [4]), the “effect of antibiotic in combination with cod trypsin on efficacy of cod trypsin” value was “can increase the efficacy of cod trypsin” and the “effect of antibiotic alone on biofilm formation” value is “the drug alone appears to increase biofilm formation”. Besides, the “effect of antibiotic alone on biofilm formation” value in test [1] (FIG. 3, 96 well plate image, crystal violet, listed as Vancomycin) is “may increase biofilm formation”.

B1: cod trypsin: trypsin from Atlantic cod (Gadus morhua), a polypeptide having serine protease activity (protein, listed as Gadus morhua)
chain: IVGGYECTKHSQAHQVSLNSGYHFCGGSLVSKDWVVSAAHCYKSVLRVRLGEHHIRVNEGTEQYISSSSVIRHPNYSSYNINNDIMLIKLTKPATLNQYVHAVALPTECAADATMCTVSGWGNTMSSVADGDKLQCLSLPILSHADCANSYPGMITQSMFCAGYLEGGKDSCQGDSGGPVVCNGVLQGVVSWGYGCAERDHPGVYAKVCVLSGWVRDTMANY
For B1, the “lethality to the bacteria” value in the test with bacteria was “not lethal to the bacteria”. Also, the “prevention of biofilm formation by pre-treatment of bacteria” value was “can prevent the formation of biofilms in a concentration dependent manner” in test [2], “very effective in preventing bacterial biofilm formation” in test [2] (listed as cod trypsin composition) and “very effective in preventing bacterial biofilm formation” in test [2] (listed as cod trypsins). Also, the “time in which cod trypsins disrupt bacterial biofilm” value in test [1] (FIG. 6, at concentrations 8 U/g or higher) is recorded as “less than 2 minutes”. Further, in test [1] (FIG. 6, log reduction compared to placebo treated biofilm), the “concentrations at which cod trypsins are very effective in disrupting bacterial biofilm” value was no less than 8 U/g. Further, the “disruption of super biofilm by cod trypsins alone” value in test [1] was “effective at removing biofilms at the higher concentration”; in test [1] (listed as cod trypsins), “very effective in disrupting the super biofilm; also recorded: very effective in disrupting bacterial biofilm; also recorded: disrupt the super biofilm in a concentration dependent manner; also recorded: quite capable of both removing bacteria from and partially prevent reattachment of bacteria to surfaces in a concentration dependent manner”.

Source of the values: patent US11338021B2, “Combination therapies” (ENZYMATICA AB, priority 2015, dated 2022).
